How the values were obtained:
Nav1.6 [1] = target: T1, Nav1.6 (Homo sapiens, UniProt Q9UQD0); details: reported in WO2015/130905; cited from earlier work
NMDA NR1/NR2B receptor = target: T2, NMDA NR1/NR2B receptor (Homo sapiens, UniProt Q13224); assay: In vitro NMDA NR1/NR2B cell assay (FLIPR, intracellular calcium induced by glycine/glutamate); type: cell-based; details: see Table 2
T2 construct: host or cells: HEK293, tetracycline-inducible expression
Experimental: A human HEK293 cell line with tetracyclin-inducible expression of NMDA NR1/NR2B receptor was used as a test system for compound efficacy and potency. The cell line was purchased from ChanTest, Catalog #CT6121. Compound activity was determined by measuring the effect of compounds on intracellular calcium concentration induced by glycine/glutamate agonism in a FLIPRtetra system (Molecular Devices).
The cells were obtained as frozen cells in cryo-vials and stored until use at −150° C. Cells were grown in culture medium (DMEM/F12, 10% FBS, 5 μg/mL Blasticidin, 150 μg/mL Zeozin, 500 μg/mL Geneticin). […] For sub-culturing the cells were detached from flasks by Versene. For the assay, cells were detached, washed twice with induction medium (DMEM/F12 without glutamine, 10% FBS, 2 μg/mL Tetracycline, 2 mM Ketamine) and seeded to 384 well pure coat amine plates (Becton Dickinson, 50000 cells per well in 50 μl) 48 h prior to assay in induction medium.
The test compounds were dissolved in 100% DMSO at a concentration of 10 mM and in a first step diluted in DMSO to a concentration of 5 mM, followed by serial dilution steps in 100% DMSO. Dilution factor and number of dilution steps may vary according to needs. Typically 8 different concentrations by 1:5 dilutions were prepared in duplicate, further intermediate dilutions (1:37.5) of the substances were carried out with aqueous assay buffer (137 mM NaCl, 4 mM KCl, 1.8 mM CaCl2, 10 mM HEPES, 10 mM Glucose, pH 7.4) resulting in a compound concentration 3 times above the final test concentration and DMSO at 2.7% resulting in 0.9% final DMSO concentration in the assay.
At the assay day cells were washed 3× with assay buffer (as described above), 10 μL buffer remained in the wells after washing. 10 μL Ca kit loading buffer (AAT Bioquest; prepared from the kit containing the following components: Component A: Fluo-8 NW dissolved in 200 μL DMSO and 20 μl of this solution are mixed with 10 ml buffer prepared out of component B and C, Component B: 10× Pluronic® F127 Plus diluted 1:10 in component C, Component C: HHBS (Hanks with 20 mM Hepes) was added to the cells and the plates were incubated with lid for 60 minutes at room temperature. 20 μl assay buffer containing 60 μM glycine (20 μM final) and 3 μM glutamate (1 μM final) was added to column 1-23, column 24 got assay buffer without glycine/glutamate to serve as negative unstimulated control. Fluorescence (indicating the calcium influx as a result of the NR1/NR2B ion channel activation) was read on the FLIPRtetra device for 60 seconds to monitor the glutamate induced effects. After 2 minutes 20 μL of compound dilution prepared as described above or controls (row 1-22) in assay buffer were carefully added to the wells. […] The average of 2 measurements at 5 minutes and […] 10 seconds after compound addition is calculated and further used for IC50 calculations. Each assay microtiter compound dilution plate contained wells (in column 23 or 24) with DMSO controls instead of compound as controls for glycine/glutamate induced fluorescence (high controls) and wells with 1 μM of a reference NR2B NAM as low controls (Compound 22; reference: Layton, Mark E et al, ACS Chemical Neuroscience 2011, 2(7), 352-362).
The output file of the reader contains the well number and measured average fluorescence units. For data evaluation and calculation, the measurement of the low control was set as 0% control and the measurement of the high control was set as 100% control. The IC50 values were calculated using the standard 4 parameter logistic regression formula. Calculation: [y=(a−d)/(1+(x/c)^b)+d], a=low value, d=high value; x=conc M; c=IC50 M; b=slope.

Nav1.6 [2] = target: T1, Nav1.6; assay: Nav 1.6 inhibition, IonWorks Quattro electrophysiology; type: cell-based
Experimental: Determination of Nav 1.6.Inhibition
IonWorks Quattro electrophysiological platform
The compounds were prepared in DMSO at 300× the final assay concentrations of 1 and 5 μM.
The 300×DMSO stock solutions were transferred into assay plates where 2 μl per well of each 300× stock solution were placed. All assay plates were stored at −80° C. until the day of assay.
On the day of the assay, the appropriate assay plate was thawed at room temperature, centrifuged, and 198 μl of external recording solution was added and mixed thoroughly. This provided a 1:100 dilution. A further 1:3 dilution occurred upon addition to the cells in the IonWorks Quattro electrophysiological platform, giving a 1:300 dilution in total. On each assay plate, at least 8 wells were reserved for vehicle control (0.3% DMSO) and at least 8 wells for each positive control specific to the cell line tested. The positive controls were tested at a maximal blocking and an approximate IC50 concentration. As positive control Lidocaine at concentrations of 30 and 1000 μM was used.
The solutions for recording Nav1.6 currents were as follows:
Amphotericin B was used to obtain electrical access to the cell interior at a final concentration of 200 μg/ml in internal recording solution.
State-dependent inhibition: Sodium channels when held at depolarized potential or long test pulse, the channels open and inactivate and then stay inactivated until the membrane potential is stepped back to hyperpolarized potentials, when the inactivated channels recover from inactivation into closed state.
Cells were held at −120 mV. In order to completely inactivate the sodium channels (pulse 1), the cells were pulsed to +0 mV for 2500 ms and stepped back to −120 mV for 10 ms (to completely recover from inactivation, however channels that had drugs bound to them will not recover from inactivation) before stepping to +0 mV for 20 ms (pulse 2).
Both the positive and vehicle control data associated with each cell line assayed are shown below as an example. The mean is shown for each positive and negative control as solid symbol with the total number of individual well replicates given next to the solid symbol. In addition, the individual data of each well are shown on the graph as open symbols so that the variation about the mean value can be readily assessed.
Shown below are the assay controls for the Nav1.6 IonWorks Quattro assay.
Tables 3 and 4 show the normalized percentage inhibition of Nav1.6 channel. […] (see also the figure Assay Control Results above).

T1 sequence (Q9UQD0 whole entry): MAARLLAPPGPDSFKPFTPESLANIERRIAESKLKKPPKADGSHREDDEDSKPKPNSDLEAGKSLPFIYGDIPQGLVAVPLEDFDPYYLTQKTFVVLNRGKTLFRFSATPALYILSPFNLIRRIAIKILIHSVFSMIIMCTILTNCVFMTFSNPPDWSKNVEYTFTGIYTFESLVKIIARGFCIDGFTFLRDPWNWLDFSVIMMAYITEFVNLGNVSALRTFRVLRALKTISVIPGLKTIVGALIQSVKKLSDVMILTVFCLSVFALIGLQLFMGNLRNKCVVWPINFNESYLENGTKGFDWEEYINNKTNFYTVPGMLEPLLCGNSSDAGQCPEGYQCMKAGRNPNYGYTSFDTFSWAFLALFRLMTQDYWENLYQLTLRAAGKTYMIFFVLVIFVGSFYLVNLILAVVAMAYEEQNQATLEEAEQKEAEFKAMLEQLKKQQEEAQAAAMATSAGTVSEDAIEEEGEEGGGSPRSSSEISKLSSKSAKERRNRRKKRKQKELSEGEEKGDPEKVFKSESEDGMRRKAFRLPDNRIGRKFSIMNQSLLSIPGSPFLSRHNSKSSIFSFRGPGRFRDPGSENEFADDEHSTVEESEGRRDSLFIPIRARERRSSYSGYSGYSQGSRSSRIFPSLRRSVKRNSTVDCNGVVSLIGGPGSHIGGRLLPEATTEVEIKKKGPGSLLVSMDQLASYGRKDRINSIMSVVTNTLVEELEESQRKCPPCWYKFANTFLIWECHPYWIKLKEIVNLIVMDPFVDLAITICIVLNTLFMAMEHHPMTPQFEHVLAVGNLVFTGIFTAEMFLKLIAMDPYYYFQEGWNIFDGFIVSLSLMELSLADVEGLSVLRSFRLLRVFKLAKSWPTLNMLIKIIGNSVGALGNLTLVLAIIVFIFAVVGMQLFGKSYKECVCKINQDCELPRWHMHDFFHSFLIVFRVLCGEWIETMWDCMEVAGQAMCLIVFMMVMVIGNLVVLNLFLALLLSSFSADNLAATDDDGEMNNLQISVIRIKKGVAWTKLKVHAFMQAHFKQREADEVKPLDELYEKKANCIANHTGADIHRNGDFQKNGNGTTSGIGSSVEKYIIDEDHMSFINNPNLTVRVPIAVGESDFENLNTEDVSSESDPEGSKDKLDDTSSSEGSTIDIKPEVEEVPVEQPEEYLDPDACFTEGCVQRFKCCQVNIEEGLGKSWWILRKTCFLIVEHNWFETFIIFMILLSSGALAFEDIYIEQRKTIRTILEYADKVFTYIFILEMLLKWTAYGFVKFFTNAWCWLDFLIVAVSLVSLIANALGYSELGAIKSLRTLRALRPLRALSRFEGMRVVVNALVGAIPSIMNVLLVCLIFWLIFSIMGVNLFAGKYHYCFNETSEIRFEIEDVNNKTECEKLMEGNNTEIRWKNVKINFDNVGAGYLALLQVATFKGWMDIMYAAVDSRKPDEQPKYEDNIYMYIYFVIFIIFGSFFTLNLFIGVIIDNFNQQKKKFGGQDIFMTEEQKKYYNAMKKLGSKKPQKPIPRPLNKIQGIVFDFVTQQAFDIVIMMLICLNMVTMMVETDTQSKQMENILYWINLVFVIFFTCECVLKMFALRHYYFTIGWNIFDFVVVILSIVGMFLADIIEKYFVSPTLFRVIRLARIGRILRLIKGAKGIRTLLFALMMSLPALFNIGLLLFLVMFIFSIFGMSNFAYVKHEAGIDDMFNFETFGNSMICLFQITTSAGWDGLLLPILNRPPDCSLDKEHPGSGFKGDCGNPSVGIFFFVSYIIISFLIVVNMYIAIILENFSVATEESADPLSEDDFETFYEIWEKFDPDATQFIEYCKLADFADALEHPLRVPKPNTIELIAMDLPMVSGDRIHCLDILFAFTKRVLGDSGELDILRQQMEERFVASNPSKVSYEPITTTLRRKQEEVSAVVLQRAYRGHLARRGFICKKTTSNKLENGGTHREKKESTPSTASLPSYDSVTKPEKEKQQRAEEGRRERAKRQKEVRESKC
T2 sequence (Q13224 27-1484, other chains not shown): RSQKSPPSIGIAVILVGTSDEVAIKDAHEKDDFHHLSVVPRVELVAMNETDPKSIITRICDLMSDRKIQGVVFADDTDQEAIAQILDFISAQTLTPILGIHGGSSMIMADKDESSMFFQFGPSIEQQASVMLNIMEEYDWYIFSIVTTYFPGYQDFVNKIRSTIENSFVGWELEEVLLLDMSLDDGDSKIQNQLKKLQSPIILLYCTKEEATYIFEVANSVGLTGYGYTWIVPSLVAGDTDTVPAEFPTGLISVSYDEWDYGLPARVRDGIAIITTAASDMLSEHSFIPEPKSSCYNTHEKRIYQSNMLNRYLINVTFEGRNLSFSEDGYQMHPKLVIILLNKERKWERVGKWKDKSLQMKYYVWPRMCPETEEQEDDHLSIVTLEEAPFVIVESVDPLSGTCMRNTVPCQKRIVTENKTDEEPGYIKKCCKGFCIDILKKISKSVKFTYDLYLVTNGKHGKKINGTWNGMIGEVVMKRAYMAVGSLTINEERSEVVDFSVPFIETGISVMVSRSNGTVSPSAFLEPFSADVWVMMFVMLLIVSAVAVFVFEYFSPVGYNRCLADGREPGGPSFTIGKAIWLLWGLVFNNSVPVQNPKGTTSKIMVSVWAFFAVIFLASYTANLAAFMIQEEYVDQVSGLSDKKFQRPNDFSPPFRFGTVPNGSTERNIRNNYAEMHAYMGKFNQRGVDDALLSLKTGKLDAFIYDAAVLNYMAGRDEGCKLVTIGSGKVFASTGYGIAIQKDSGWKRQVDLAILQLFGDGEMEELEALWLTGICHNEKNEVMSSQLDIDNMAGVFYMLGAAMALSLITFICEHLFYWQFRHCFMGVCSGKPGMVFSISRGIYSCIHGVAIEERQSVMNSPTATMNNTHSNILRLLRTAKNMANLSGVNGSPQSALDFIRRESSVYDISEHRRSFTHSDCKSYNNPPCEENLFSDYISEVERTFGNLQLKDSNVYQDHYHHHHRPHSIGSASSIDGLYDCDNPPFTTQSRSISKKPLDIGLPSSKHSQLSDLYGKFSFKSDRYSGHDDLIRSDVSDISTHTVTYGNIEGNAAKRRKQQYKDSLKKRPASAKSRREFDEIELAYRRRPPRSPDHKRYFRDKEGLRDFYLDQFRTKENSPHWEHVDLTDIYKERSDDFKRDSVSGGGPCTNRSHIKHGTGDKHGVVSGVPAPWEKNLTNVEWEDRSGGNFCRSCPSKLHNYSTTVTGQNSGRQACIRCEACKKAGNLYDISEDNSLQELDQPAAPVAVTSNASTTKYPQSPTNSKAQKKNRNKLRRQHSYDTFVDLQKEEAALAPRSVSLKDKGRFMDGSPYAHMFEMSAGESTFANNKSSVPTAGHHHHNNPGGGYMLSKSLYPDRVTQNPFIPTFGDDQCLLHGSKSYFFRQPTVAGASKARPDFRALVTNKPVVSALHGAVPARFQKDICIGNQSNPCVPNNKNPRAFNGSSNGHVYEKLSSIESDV

O=C(C1CN(Cc2cccc(Oc3ccccc3)c2)CCO1)N1CCOCC1 (stereo not shown) [Example 106 of WO2015/130905, reference compound]
Nav 1.6 blockage (Nav1.6 [1]): > 5 µM | activity on the NR1-NR2B ion channel (in words) (NMDA NR1/NR2B receptor): do not show any activity | significant inhibition of the Nav 1.6 channel (in words) (Nav1.6 [2]; at 5 μM): not showing any significant inhibition | significant inhibition of the Nav 1.6 channel (in words) (Nav1.6 [2]; at 1 and 5 μM): do not show any significant inhibition

Reference: patent US11155539B2, “4-pyridinylmethyl-morpholine derivatives and the use thereof as medicament” (Boehringer Ingelheim International GmbH, priority 2018, dated 2021)
